Source: ChEMBL document CHEMBL1671626, “In vitro profiling of ceftaroline against a collection of recent bacterial clinical isolates from across the United States” (2008)
Values after ≈ are worked out from the molar mass of the structure shown.

What was measured:
Format in all cases: functional
[1] = tested on: Escherichia coli; assay: Antibacterial activity against ceftazidime-susceptible Escherichia coli by CLSI M7-A7 broth microdilution method
[2] = tested on: Escherichia coli; assay: Antibacterial activity against ceftazidime-susceptible Escherichia coli assessed as susceptible isolates by CLSI M7-A7 broth microdilution method
[3] = tested on: Morganella morganii; assay: Antibacterial activity against ceftazidime-susceptible Morganella morganii assessed as susceptible isolates by CLSI M7-A7 broth microdilution method
[4] = tested on: Enterobacter cloacae; assay: Antibacterial activity against ceftazidime-nonsusceptible Enterobacter cloacae assessed as resistant isolates by CLSI M7-A7 broth microdilution method
[5] = tested on: Acinetobacter; assay: Antibacterial activity against imipenem-susceptible Acinetobacter by CLSI M7-A7 broth microdilution method
[6] = tested on: Providencia sp.; assay: Antibacterial activity against ceftazidime-susceptible Providencia sp. assessed as susceptible isolates by CLSI M7-A7 broth microdilution method
[7] = tested on: Enterobacteriaceae; assay: Antibacterial activity against ceftazidime-susceptible Enterobacteriaceae by CLSI M7-A7 broth microdilution method
[8] = tested on: Klebsiella pneumoniae; assay: Antibacterial activity against ceftazidime-susceptible Klebsiella pneumoniae by CLSI M7-A7 broth microdilution method
[9] = tested on: Escherichia coli; assay: Antibacterial activity against ceftazidime-nonsusceptible Escherichia coli by CLSI M7-A7 broth microdilution method
[10] = tested on: Escherichia coli; assay: Antibacterial activity against ceftazidime-nonsusceptible Escherichia coli assessed as resistant isolates by CLSI M7-A7 broth microdilution method
[11] = tested on: Haemophilus influenzae; assay: Antibacterial activity against beta lactamase-positive Haemophilus influenzae assessed as resistant isolates by CLSI M7-A7 broth microdilution method
[12] = tested on: Klebsiella pneumoniae; assay: Antibacterial activity against ceftazidime-nonsusceptible Klebsiella pneumoniae assessed as susceptible isolates by CLSI M7-A7 broth microdilution method
[13] = tested on: Proteus mirabilis; assay: Antibacterial activity against ceftazidime-susceptible Proteus mirabilis assessed as resistant isolates by CLSI M7-A7 broth microdilution method
[14] = tested on: Klebsiella pneumoniae; assay: Antibacterial activity against ceftazidime-susceptible Klebsiella pneumoniae assessed as susceptible isolates by CLSI M7-A7 broth microdilution method
[15] = tested on: Citrobacter freundii; assay: Antibacterial activity against ceftazidime-susceptible Citrobacter freundii assessed as resistant isolates by CLSI M7-A7 broth microdilution method
[16] = tested on: Proteus mirabilis; assay: Antibacterial activity against ceftazidime-susceptible Proteus mirabilis by CLSI M7-A7 broth microdilution method
[17] = tested on: Haemophilus influenzae; assay: Antibacterial activity against beta lactamase-positive Haemophilus influenzae by CLSI M7-A7 broth microdilution method
[18] = tested on: Enterobacteriaceae; assay: Antibacterial activity against ceftazidime-nonsusceptible Enterobacteriaceae by CLSI M7-A7 broth microdilution method
[19] = tested on: Klebsiella pneumoniae; assay: Antibacterial activity against ceftazidime-nonsusceptible Klebsiella pneumoniae assessed as resistant isolates by CLSI M7-A7 broth microdilution method
[20] = tested on: Morganella morganii; assay: Antibacterial activity against ceftazidime-susceptible Morganella morganii assessed as resistant isolates by CLSI M7-A7 broth microdilution method
[21] = tested on: Enterobacteriaceae; assay: Antibacterial activity against ceftazidime-susceptible Enterobacteriaceae assessed as susceptible isolates by CLSI M7-A7 broth microdilution method
[22] = tested on: Enterobacter cloacae; assay: Antibacterial activity against ceftazidime-susceptible Enterobacter cloacae by CLSI M7-A7 broth microdilution method
[23] = tested on: Haemophilus influenzae; assay: Antibacterial activity against beta lactamase-positive Haemophilus influenzae assessed as susceptible isolates by CLSI M7-A7 broth microdilution method
[24] = tested on: Acinetobacter; assay: Antibacterial activity against multidrug-resistant Acinetobacter by CLSI M7-A7 broth microdilution method
[25] = tested on: Serratia marcescens; assay: Antibacterial activity against ceftazidime-susceptible Serratia marcescens assessed as resistant isolates by CLSI M7-A7 broth microdilution method
[26] = tested on: Haemophilus influenzae; assay: Antibacterial activity against beta lactamase-negative Haemophilus influenzae assessed as resistant isolates by CLSI M7-A7 broth microdilution method
[27] = tested on: Acinetobacter; assay: Antibacterial activity against multidrug-resistant Acinetobacter assessed as resistant isolates by CLSI M7-A7 broth microdilution method

Compound: CCN1CCN(C(=O)N[C@@H](C(=O)N[C@@H]2C(=O)N3[C@@H]2SC(C)(C)[C@@H]3C(=O)O)c2ccccc2)C(=O)C1=O [PIPERACILLIN]
- MIC50 [1]: 1 µg/mL (≈ 1.93 µM)
- MIC90 [1]: 4 µg/mL (≈ 7.73 µM)
- Activity [2]: 96.5%
- Activity [3]: 100%
- Activity [4]: 54.3%
- MIC50 [5]: 8 µg/mL (≈ 15.5 µM)
- MIC90 [5]: > 64 µg/mL
- Activity [6]: 92.6%
- MIC50 [7]: 2 µg/mL (≈ 3.86 µM)
- MIC90 [7]: 4 µg/mL (≈ 7.73 µM)
- MIC50 [8]: 2 µg/mL (≈ 3.86 µM)
- MIC90 [8]: 8 µg/mL (≈ 15.5 µM)
- MIC50 [9]: 16 µg/mL (≈ 30.9 µM)
- MIC90 [9]: > 64 µg/mL
- Activity [10]: 17.5%
- Activity [11]: 1%
- Activity [12]: 24.2%
- Activity [13]: 0%
- Activity [14]: 97.1%
- Activity [15]: 0%
- MIC [16]: ≤ 0.5 µg/mL
- MIC50 [16]: ≤ 0.5 µg/mL
- MIC90 [16]: 1 µg/mL (≈ 1.93 µM)
- MIC [17]: ≤ 0.03 µg/mL
- MIC50 [17]: ≤ 0.03 µg/mL
- MIC90 [17]: 0.06 µg/mL (≈ 0.116 µM)
- MIC50 [18]: 32 µg/mL (≈ 61.8 µM)
- MIC90 [18]: > 64 µg/mL
- Activity [19]: 62.1%
- Activity [20]: 0%
- Activity [21]: 97%
- MIC50 [22]: 2 µg/mL (≈ 3.86 µM)
- MIC90 [22]: 4 µg/mL (≈ 7.73 µM)
- Activity [23]: 99%
- MIC50 [24]: > 64 µg/mL
- Activity [25]: 3.4%
- Activity [26]: 0%
- Activity [27]: 87.5%
